Experimental data as given in ChEMBL document CHEMBL1140125, “Purity-activity relationships of natural products: the case of anti-TB active ursolic acid” (2008).
In brackets after ≈: the same amount, converted by molar mass.

What was measured:
[1] = tested on: Mycobacterium tuberculosis; test: Antimycobacterial activity against Mycobacterium tuberculosis H37Rv ATCC 27294 after 7 days by microplate Alamar blue assay; assay type: functional; conditions: 168 h
[2] = tested on: Mycobacterium tuberculosis; test: Antimycobacterial activity against Mycobacterium tuberculosis H37Rv GFP after 7 days by green fluorescent microplate assay; assay type: functional; conditions: 168 h

Row | Compound | MIC [1] | MIC [2]
1 | C=C(C)[C@@H]1CC[C@]2(C(=O)O)CC[C@]3(C)[C@H](CC[C@@H]4[C@@]5(C)CC[C@H](O)C(C)(C)[C@@H]5CC[C@]43C)[C@@H]12 [BETULINIC ACID] | > 128 µg/mL | –
2 | CC1(C)CC[C@]2(C(=O)O)CC[C@]3(C)C(=CC[C@@H]4[C@@]5(C)CC[C@H](O)C(C)(C)[C@@H]5CC[C@]43C)[C@@H]2C1 [OLEANOLIC_ACID] | 100 µg/mL (≈ 219 µM) | –
3 | C[C@H]1[C@H](C)CC[C@]2(C(=O)O)CC[C@]3(C)C(=CC[C@@H]4[C@@]5(C)CC[C@H](O)C(C)(C)[C@@H]5CC[C@]43C)[C@H]12 [URSOLIC ACID] | > 256 µg/mL | > 100 µg/mL
